The values that follow come from patent publication US20150159222A1, “MARKERS ASSOCIATED WITH HUMAN DOUBLE MINUTE 2 INHIBITORS” (NOVARTIS AG, priority 2012, published 2015).

The structures appear in SMILES notation.

The T/C is the ratio of treated to control.

For data set [1], the system named is p21(CDKN1A). Nature of the data set: p21(CDKN1A) mRNA in SJSA-1 xenograft tumors (qRT-PCR). It is filed as in vivo, Harlan nude mice. The procedure:
Briefly, total RNA was purified from cell pellets using the QIAshredder® (79654, Qiagen:Valencia Calif., USA) and RNeasy Mini Kit® (74106, Qiagen: Valencia Calif., USA) according to the manufacturer's instructions, with the exception that no DNA digestion was performed. Total RNA was eluted with 50 μL of RNase-free water. Total RNA was quantitated using the spectrophotometer ND-1000 Nanodrop® (Wilmington Del., USA). The qRT-PCR (Quantitative Reverse Transcriptase Polymerase Chain Reaction) was set up in triplicate per sample using the One-Step RT qPCR Master Mix Plus (RT-QPRT-032X, Eurogentec: Seraing, Belgium), with either control primers and primers for human p21(CDKN1A) (Hs00355782_m1, Applied Biosystems: Carlsbad Calif., USA) or mouse p21(CDKN1A) (Mm00432448_m1, Applied Biosystems: Carlsbad Calif., USA), namely TaqMan Gene Expression kit assays (20× probe dye FAM™ (or VIC)-TAMRA (or MGB); Applied Biosystems: Carlsbad Calif., USA). […] The number of cycles (CT) was determined, 2^−CT values were calculated, and the value normalized by dividing with the 2^−CT value obtained from the GAPDH control. Fold increase over control (i.e. DMSO- or vehicle-treated animals) was calculated and plotted in the bar graph.
Background: Real-time PCR tracks product formation cycle by cycle.

For another data set, the system named is COLO 792 cells. Nature of the data set: Western blot of p53 pathway proteins in COLO 792 cells. It is filed as cell-based. The note with it: 4 hours. The procedure: (§1) That the biomarkers in Table 2/FIG. 3 are reflective of a functional p53 pathway in MDM2i sensitive cells is verified in FIG. 4. […]. Whole cell lysates were prepared using a cell lysis buffer containing 50 mM Tris-HCl pH 7.5, 120 mM NaCl, 1 mM EDTA, 6 mM EGTA pH 8.5, 1% NP-40, 20 mM NaF, 1 mM PMSF and 0.5 mM Na-Vanadat, proteins were separated on NuPAGE 4-12% Bis-Tris Gel (Invitrogen # NP0322BOX, Lucerne; Switzerland), transferred onto Nitrocellulose Protran® BA 85 membranes (Whatman #10 401 261: Piscataway, N.J., USA) at 1.5 mA/cm^2 membrane for 2 h using a semi-dry blotting system, and immunoblotted with either an anti-phospho-p53 (Ser^15) (1/1000; Cell Signaling Technology #9284: Beverly, Mass., USA) rabbit polyclonal antibody, or an anti-p53 (Ab-6) (Pantropic, clone DO-1,) (1/1000; Calbiochem # OP43 San Diego, Calif., USA), an anti-MDM2 (Ab-1, clone IF2) (1/1000; Calbiochem # OP46), an anti-p21^WAF1(Ab-1, clone EA10) (1/500; Calbiochem # OP64: San Diego, Calif., USA) or an anti-a-Tubulin (Sigma # T5168: St. Louis, Mo., USA) mouse monoclonal antibodies, as indicated. […].
For orientation: A western blot detects proteins with antibodies after separation by electrophoresis.

Data set [2] relates to p21(CDKN1A). Nature of the data set: p21(CDKN1A) protein in SJSA-1 xenograft tumors (immunohistochemistry). It is filed as in vivo, Harlan nude mice. How it is done: SJSA-1 xenograft tumors were collected and a 3-4 mm slice out of the middle of the tumor was removed, transferred into pre-labelled histo-cassettes and immersion-fixed in neutral buffered formalin (NBF) 10% (v/v) (pH 6.8-7.2) (J. T. Baker, Winter Garden, Fla., USA), pre-cooled at 4° C. Tumors were then fixed at room temperature for 24 hours, followed by processing in the TPC 15Duo (Tissue Processing Center, Medite) for paraffinization. Subsequently, the tumor slices were embedded in paraffin and from each paraffin block several 3 μm thick sections were cut on a rotary microtome (Mikrom International AG, Switzerland), spread in a 48° C. water-bath, mounted on glass slides (SuperFrost Plus, Thermo Scientific:Waltham Mass., USA), and dried in an oven either at 37° C. overnight or at 60° C. for 30 min. Dry tissue section were processed for immunohistochemistry (IHC) staining. p21(CDKN1A) immunohistochemistry has been performed using the mouse monoclonal antibody clone SX118 from Dako (Cat. No. M7202 Dako: Carpenteria Calif., USA) at a dilution of 1:50. Immunohistochemistry has been performed on a Ventana Discovery XT automated immunostainer using the N-Histofine Mousestain Kit (Nichirei Bioscience Inc, Japan) in combination with the DABMap Kit chromogen system, omitting the SA-HRP solution (Ventana/Roche Diagnostics GmbH, Mannheim, Germany). […]

Data set [3] has as its system SJSA-1 osteosarcoma cells. Nature of the data set: SJSA-1 xenograft tumor growth. It is filed as in vivo, Harlan nude mice. The note with it: for T/C: 10-day treatment. How it is done:
To further validate the predictive biomarkers disclosed in FIG. 3, in vivo human xenograft models either from human primary samples or from cell lines were directly injected and grown in tumors subcutaneously in mice and then assessed for MDM2i sensitivity. All the animals were allowed to adapt for 4 days and housed in a pathogen-controlled environment (5 mice/Type III cage) with access to food and water ad libitum. Animals were identified with transponders. Studies were performed according to procedures covered by permit number 1975 issued by the Kantonales Veterinaramt Basel-Stadt and strictly adhered to the Eidgenössisches Tierschutzgesetz and the Eidgenössische Tierschutzverordnung. Subcutaneous tumors were induced by concentrating 3.0×10^6 SJSA-1 osteosarcoma cells in 100 μl of PBS (without Ca^2+ and Mg^2+) and injecting in the right flank of Harlan nude mice. The administration of MDM2i began 12-14 days post cell injection. MDM2i was prepared immediately before each administration. MDM2i compounds were dissolved in 0.5% HPMC (hydroxypropylmethylcellulose) and were injected daily (q24h) at 25, 50 or 100 mg/kg. Tumor volumes (TVol), determined from caliper measurements (using the formula l×w×h×π/6) were measured three times per week. Tumor response was quantified by the change in tumor volume (endpoint minus starting value in mm^3) as the T/C, i.e.
In the case of a tumor regression, the tumor response was quantified by the percentage of regression of the starting TVoI, i.e.
The body-weight (BW) of the mice was measured three times per week allowing calculation at any particular time-point relative to the day of initiation of treatment (day 0) of both the percentage change in BW (Δ % BW). […].

In data set [4] the test system is p53 wild-type (SJSA-1 and HCT116 p53wt/wt cells) and p53 mutant cell lines (SAOS2 and HCT116 p53-/- cells). Put plainly: Cell proliferation inhibition assay (YOPRO). It is filed as cell-based. Conditions: 72 hours; p53 wild-type vs p53 mutant cell lines. The procedure:
Lucern, Switzerland). Briefly, cells are plated in 96-well plates overnight at 37° C. and are treated with increasing concentrations of MDM2i(1) or MDM2i(2) for 72 hours. Cell concentration in each well is then determined using the DNA-interacting fluorescent dye YOPRO according to the manufacturer's instructions and the fluorescent signal is measured using a Gemini-EM standard plate reader (Molecular Devices: Sunnyvale, Calif., USA).

A further data set relates to C3A cells. Nature of the data set: Western blot of p53 pathway proteins in C3A cells. The note with it: 4 hours. It is filed as cell-based. How it is done: as §1
A further data set deals with CCLE cell lines. Nature of the data set: Chemical sensitivity of the CCLE cell line panel. Type of data set: cell-based. How it is done:
[…]. The cell line panel is the one covered by the Cancer Cell Line Encyclopedia (CCLE) initiative (Barretina J., Caponigro G., Stransky N., Venkatesan K., et al. The Cancer Cell Line Encyclopedia enables predictive modeling of anticancer drug sensitivity. Nature 483:603-7, 2012). A detailed genomic, genetic and pharmacologic characterization was conducted on the CCLE cell lines.
p53 mutation status in CCLE cell lines is taken from a data source of gene-level genetic alterations, for example, point-mutations, insertions, deletions and complex genetic alterations, compiled from the Sanger center COSMIC data and internal sources including Exome Capture Sequencing. This comprises data from approximately 1,600 cancer-related genes over the CCLE cell lines.
[…]. […] From such in vitro chemical sensitivity data, the prediction that a cell would be sensitive to an MDM2i treatment was estimated to be 13%. […].

A further data set concerns SJSA-1 osteosarcoma line. Conditions: SJSA-1, amplified copies of the MDM2 gene; cited from earlier work.
A further data set deals with SJSA-1 cell line. The note with it: SJSA-1 xenografts in mouse; cited from earlier work.
A further data set has as its system human normal fibroblasts. The note with it: cited from earlier work.
A further data set relates to mouse normal fibroblasts. Conditions: cited from earlier work.
[5] abbreviates: COLO 792 cells, increasing concentrations.
Where [6] appears, read: C3A cells, increasing concentrations.

Turning to `COc1cc2c(cc1OC(C)C)[C@H](c1ccc(Cl)cc1)N(c1ccc(N(C)C[C@H]3CC[C@H](N4CCN(C)C(=O)C4)CC3)cc1)C(=O)C2` [MDM2i(1)], in the data set with p21(CDKN1A) [1], the “p21(CDKN1A) mRNA levels in tumors” value is on record as “significant dose-dependent induction of p21(CDKN1A) mRNA levels in tumors”. The p53 protein levels entry in the data set with COLO 792 cells (setting [5]) and in the data set on C3A cells (setting [6]) was “induces stabilization of p53 protein levels” each time. In addition, the phospho-p53 result with COLO 792 cells (setting [5]) and with C3A cells (setting [6]) was “no significant increase of phospho-p53” in each case. Besides, the “expression of p53 target genes p21(CDKN1A) and MDM2” value is “not in COLO-792 insensitive cell line” in the data set with COLO 792 cells (COLO-792 insensitive cell line); “induces a strong de novo expression of both p53 target genes p21(CDKN1A) and MDM2” in the data set with C3A cells (C3A sensitive cells). For the same compound, the “p21(CDKN1A) protein levels in tumors” value in the data set on p21(CDKN1A) [2] is “significant dose-dependent induction of p21(CDKN1A) protein levels in tumors”. Moreover, the T/C in data set [3] (25 mg/kg q24h) is 50%; in data set [3] (50 mg/kg q24h), 3%. Further, the tumor regression in data set [3] (100 mg/kg q24h for 10 days) was 65%. For the same compound, in data set [4], the tumor cell proliferation entry is listed as “hampering tumor cell proliferation in a p53-dependent manner”.

Take `COc1cc2c(cc1OC(C)C)[C@H](c1ccc(Cl)cc1)N(c1ccc(N(C)C[C@H]3CC[C@H](N4CCNC(=O)C4)CC3)cc1)C(=O)C2` [MDM2i(2)]: in the data set with CCLE cell lines (CCLE panel), the “number of insensitive cell lines” value turned out to be 309 and the “number of sensitive cell lines” value worked out at 47. Further, the “sensitivity of p53 mutated cell lines” value with CCLE cell lines (p53 mutated CCLE cell lines) is on record as “majority of p53 mutated cell lines are found insensitive”. Besides, the “sensitivity of p53 wild type cell lines” value with CCLE cell lines (p53 wild type CCLE cell lines) is reported as “more than two-third of p53 wild type cell lines are sensitive”. In data set [4], the tumor cell proliferation result is listed as “hampering tumor cell proliferation in a p53-dependent manner”.

For the compound `COc1ccc(C2=N[C@@H](c3ccc(Cl)cc3)[C@@H](c3ccc(Cl)cc3)N2C(=O)N2CCNC(=O)C2)c(OC(C)C)c1` [Nutlin-3], in the data set with SJSA-1 osteosarcoma line, the proliferation and apoptosis entry was “reduced proliferation and increased apoptosis”. Moreover, the “reduction of xenograft growth” value in the data set on SJSA-1 cell line is given as 90%. Also, the “proliferation and viability of non-cancerous cells” value with human normal fibroblasts was “the proliferation of the cells was slowed, they retained their viability”; with mouse normal fibroblasts, “the proliferation of the cells was slowed, they retained their viability”.
